The source of these data is patent publication US6231875A, “Acidified composition for topical treatment of nail and skin conditions” (Johnson & Johnson Consumer Companies, Inc., priority 1999, dated 2001).

The nature of data set [1]: pH measurement of acidifiers with a glass electrode. Type of data set: physicochemical. The following applies: after 1 min. The text has this:
Apparent pH is the pH reading measured by a glass pH electrode. The preferred acidifiers are 37% HCl, 10% HCl, sulfuric acid, o-phosphoric acid, nitric acid, acetic acid, L (+)-lactic acid, salicylic acid, and glycolic acid. The particularly preferred acidifiers are 37% HCl and 10% HCl. If the total weight of the acidified composition is 100 parts, the acidifier should be about 0.05 to about 50% w/w (w/w=weight/weight), preferably, from about 0.1% to about 10%, more preferably form about 0.5% to about 5%.

The test system of a further data set is onychomycosis. The following applies: after nail removal; cited from earlier work.

For `O=C(O)c1ccccc1O` [Salicylic acid], the pH reading in data set [1] came out at 2.92. `C[C@H](O)C(=O)O` [L(+)-lactic acid]: the pH reading in data set [1] worked out at 0.31. Regarding `CC(=O)N1CCN(c2ccc(OCC3COC(Cn4ccnc4)(c4ccc(Cl)cc4Cl)O3)cc2)CC1` (stereo not drawn) [ketoconazole], in the data set with onychomycosis, the “Effectiveness in topically treating onychomycosis” value is “effective”. In data set [1], `CC(=O)O` [Acetic acid] gave a pH reading of -0.19 to -0.28.

Turning to `O=C(O)CO` [Glycolic Acid], the pH reading in data set [1] came to 0.43. With `Clc1ccc(COC(Cn2ccnc2)c2ccc(Cl)cc2Cl)c(Cl)c1` (stereo not drawn) [miconazole], the “Effectiveness in topically treating onychomycosis” value in the data set with onychomycosis is given as “effective”.
